Results as given in EP3623369A1, “NOVEL MORPHOLINYL AMINE COMPOUNDS FOR THE TREATMENT OF AUTOIMMUNE DISEASE” (F. Hoffmann-La Roche AG, priority 2018, dated 2020).

Target: T1, hTLR9 (Homo sapiens, UniProt Q9NR96)
T1 sequence (Q9NR96 26-1032): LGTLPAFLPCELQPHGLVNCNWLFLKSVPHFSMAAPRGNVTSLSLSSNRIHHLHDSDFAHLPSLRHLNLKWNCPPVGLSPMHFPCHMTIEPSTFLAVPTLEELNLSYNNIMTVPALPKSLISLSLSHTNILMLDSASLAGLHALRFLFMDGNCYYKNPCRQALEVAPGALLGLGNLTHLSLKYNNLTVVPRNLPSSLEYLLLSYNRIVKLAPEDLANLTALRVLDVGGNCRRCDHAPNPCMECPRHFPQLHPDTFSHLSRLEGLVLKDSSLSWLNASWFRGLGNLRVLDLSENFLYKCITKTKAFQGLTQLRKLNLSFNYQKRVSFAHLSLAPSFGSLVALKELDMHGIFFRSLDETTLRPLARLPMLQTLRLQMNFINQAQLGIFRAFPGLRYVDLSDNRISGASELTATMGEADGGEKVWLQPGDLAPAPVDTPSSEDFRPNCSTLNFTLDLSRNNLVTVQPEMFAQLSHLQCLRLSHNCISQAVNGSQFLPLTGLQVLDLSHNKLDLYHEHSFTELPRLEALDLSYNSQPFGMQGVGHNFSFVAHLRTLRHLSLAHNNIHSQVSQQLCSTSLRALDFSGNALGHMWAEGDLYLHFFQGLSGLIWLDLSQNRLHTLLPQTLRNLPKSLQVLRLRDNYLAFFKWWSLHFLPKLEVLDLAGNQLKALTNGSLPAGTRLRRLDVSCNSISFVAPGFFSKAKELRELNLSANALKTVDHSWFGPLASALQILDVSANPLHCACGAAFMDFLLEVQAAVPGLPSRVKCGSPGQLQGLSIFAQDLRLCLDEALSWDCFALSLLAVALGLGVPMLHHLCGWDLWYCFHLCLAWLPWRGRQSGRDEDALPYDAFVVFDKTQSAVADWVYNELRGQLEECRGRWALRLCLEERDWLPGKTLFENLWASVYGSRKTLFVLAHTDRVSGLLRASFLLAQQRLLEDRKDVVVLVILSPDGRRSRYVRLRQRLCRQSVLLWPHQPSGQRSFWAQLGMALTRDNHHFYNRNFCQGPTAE
Assay: HEK293-Blue-hTLR-9 cells assay (SEAP reporter, ODN2006 stimulation)
Type: cell-based
Conditions: HEK293-Blue-hTLR9 cells, ODN2006, 20 hrs; 0.032 is the lowest tested concentration; read-out: HEK/hTLR9 IC50
Procedure: The following tests were carried out in order to determine the activity of the compounds of formula (I) or (Ia) in HEK293-Blue-hTLR-7/8/9 cells assay.
HEK293-Blue-hTLR-9 cells assay:
A stable HEK293-Blue-hTLR-9 cell line was purchased from InvivoGen (Cat.#: hkb-htlr9, San Diego, California, USA). These cells were originally designed for studying the stimulation of human TLR9 by monitoring the activation of NF-κB. A SEAP (secreted embryonic alkaline phosphatase) reporter gene was placed under the control of the IFN-β minimal promoter fused to five NF-κB and AP-1-binding sites. The SEAP was induced by activating NF-κB and AP-1 via stimulating HEK-Blue hTLR9 cells with TLR9 ligands. Therefore the reporter expression was declined by TLR9 antagonist under the stimulation of a ligand, such as ODN2006 (Cat.#: tlrl-2006-1, Invivogen, San Diego, California, USA), for incubation of 20 hrs. The cell culture supernatant SEAP reporter activity was determined using QUANTI-Blue™ kit (Cat.#: rep-qb1, Invivogen, San Diego, California, USA) at a wavelength of 640 nm, a detection medium that turns purple or blue in the presence of alkaline phosphatase.
HEK293-Blue-hTLR9 cells were incubated at a density of 250,000∼450,000 cells/mL in a volume of 170 µL in a 96-well plate in Dulbecco's Modified Eagle's medium (DMEM) containing 4.5 g/L glucose, 50 U/mL penicillin, […], […], 2 mM L-glutamine, 10% (v/v) heat-inactivated fetal bovine serum with addition of 20 µL test compound in a serial dilution in the presence of final DMSO at 1% and 10 µL of 20uM ODN2006 in above DMEM, perform incubation under 37 °C in a CO2 incubator for 20 hrs. Then 20 µL of the supernatant from each well was incubated with 180 µL Quanti-blue substrate solution at 37 °C for 2 hrs and the absorbance was read at 620∼655 nm using a spectrophotometer. The signalling pathway that TLR9 activation leads to downstream NF-κB activation has been widely accepted, and therefore similar reporter assay was modified for evaluating TLR9 antagonist.

IC50 [nM]	SMILES
64	C[C@@H]1CN(c2ccc(C#N)n3nccc23)C[C@H](CN2Cc3ccc(C4CCNC4)cc3C2)O1 (stereo partly drawn) [Example 9, 4-[(2R,6S)-2-methyl-6-[(5-pyrrolidin-3-ylisoindolin-2-yl)methyl]morpholin-4-yl]pyrazolo[1,5-a]pyridine-7-carbonitrile]
122	C[C@@H]1CN(c2ccc(C#N)c3nccnc23)C[C@H](CN2Cc3ccc(N4CCN5CCCCC5C4)cc3C2)O1 (stereo partly drawn) [Example 40, 8-[(2S,6R)-2-[[5-(1,3,4,6,7,8,9,9a-octahydropyrido[1,2-a]pyrazin-2-yl)isoindolin-2-yl]methyl]-6-methyl-morpholin-4-yl]quinoxaline-5-carbonitrile]
62	C[C@@H]1CN(c2ccc3c(c2)CN(C[C@H]2CN(c4ccc(C#N)c5ncccc45)C[C@@H](C)O2)C3)CCN1 [Example 62, 5-[(2R,6S)-2-methyl-6-[[5-[(3R)-3-methylpiperazin-1-yl]isoindolin-2-yl]methyl]morpholin-4-yl] quinoline-8-carbonitrile]
62	C[C@@H]1CN(c2ccc(C#N)n3nccc23)C[C@H](CN2Cc3ccc(C4CCNCC4)cc3C2)O1 [Example 8, 4-[(2R,6S)-2-methyl-6-[[5-(4-piperidyl)isoindolin-2-yl]methyl]morpholin-4-yl]pyrazolo[1,5-a]pyridine-7-carbonitrile]
190	C[C@@H]1CN(c2ccc(C#N)c3ncccc23)C[C@H](CN2Cc3ccc(N4CCNCC4C(F)F)cc3C2)O1 (stereo partly drawn) [Example 76, 5-[(2S,6R)-2-[[5-[2-(difluoromethyl)piperazin-1-yl]isoindolin-2-yl]methyl]-6-methyl-morpholin-4-yl]quinoline-8-carbonitrile]
125	C[C@@H]1CN(c2ccc(Cl)c3nccnc23)C[C@H](CN2CCc3cc(N4CCNCC4)ccc3C2)O1 [Example 34, (2R,6S)-4-(8-chloroquinoxalin-5-yl)-2-methyl-6-[(6-piperazin-1-yl-3,4-dihydro-1H-isoquinolin-2-yl)methyl]morpholine]
46	C[C@@H]1CN(c2ccc(C#N)n3nccc23)C[C@H](CN2CCc3cc(N4CCN(C)CC4)ccc3C2)O1 [Example 15, 4-[(2R,6S)-2-methyl-6-[[6-(4-methylpiperazin-1-yl)-3,4-dihydro-1H-isoquinolin-2-yl]methyl]morpholin-4-yl]pyrazolo[1,5-a]pyridine-7-carbonitrile]
260	COCCN1CCN(c2ccc3c(c2)CN(C[C@H]2CN(c4ccc(C#N)c5nccnc45)C[C@@H](C)O2)C3)CC1 [Example 37, 8-[(2S,6R)-2-[[5-[4-(2-methoxyethyl)piperazin-1-yl]isoindolin-2-yl]methyl]-6-methyl-morpholin-4-yl]quinoxaline-5-carbonitrile]
50600	C[C@@H]1CN(c2ccc(C#N)n3nccc23)C[C@H](CN2CCc3cnccc3C2)O1 [Example R1, 4-[(2S,6R)-2-(3,4-dihydro-1H-2,6-naphthyridin-2-ylmethyl)-6-methyl-morpholin-4-yl]pyrazolo[1,5-a]pyridine-7-carbonitrile, reference compound]
98	C[C@@H]1CN(c2ccc3c(c2)CN(C[C@H]2CN(c4ccc(C#N)c5ncccc45)C[C@@H](C)O2)C3)C[C@@H](C)N1 (mixture of isomers) [Example 57, Trans-5-[(2R,6S)-2-methyl-6-[[5-[3,5-dimethylpiperazin-1-yl]isoindolin-2-yl]methyl]morpholin-4-yl]quinoline-8-carbonitrile]
84	C[C@@H]1CN(c2ccc(C#N)c3ncccc23)C[C@H](CN2Cc3ccc(N4CC5(CCN5)C4)cc3C2)O1 [Example 55, 5-[(2S,6R)-2-[[5-(1,6-diazaspiro[3.3]heptan-6-yl)isoindolin-2-yl]methyl]-6-methyl-morpholin-4-yl]quinoline-8-carbonitrile]
57	CC1CN(c2ccc3c(c2)CN(C[C@H]2CN(c4ccc(C#N)c5nccnc45)C[C@@H](C)O2)C3)CCN1 (stereo partly drawn) [Example 36, 8-[(2R,6S)-2-methyl-6-[[5-(3-methylpiperazin-1-yl)isoindolin-2-yl]methyl]morpholin-4-yl]quinoxaline-5-carbonitrile]
75	C[C@@H]1CN(c2ccc(C#N)c3ncccc23)C[C@H](CN2Cc3ccc(N4CCN[C@@H](C)C4)cc3C2)O1 [Example 64, 5-[(2R,6S)-2-methyl-6-[[5-[(3S)-3-methylpiperazin-1-yl]isoindolin-2-yl]methyl]morpholin-4-yl]quinoline-8-carbonitrile]
66	C[C@@H]1CN(c2ccc(C#N)c3ncccc23)C[C@H](CN2Cc3cc(N4CCNCC4)cc(F)c3C2)O1 [Example 59, 5-[(2S,6R)-2-[(4-fluoro-6-piperazin-1-yl-isoindolin-2-yl)methyl]-6-methyl-morpholin-4-yl]quinoline-8-carbonitrile]
81	C[C@@H]1CN(c2ccc(C#N)c3ncccc23)C[C@H](CN2Cc3cc(N4CCN(C)CC4)cc(F)c3C2)O1 [Example 69, 5-[(2S,6R)-2-[[4-fluoro-6-(4-methylpiperazin-1-yl)isoindolin-2-yl]methyl]-6-methyl-morpholin-4-yl]quinoline-8-carbonitrile]
259	CCOC(=O)C1CNCCN1c1ccc2c(c1)CN(C[C@H]1CN(c3ccc(C#N)c4ncccc34)C[C@@H](C)O1)C2 (stereo partly drawn) [Example 50, Ethyl 1-[2-[[(2S,6R)-4-(8-cyano-5-quinolyl)-6-methyl-morpholin-2-yl]methyl]isoindolin-5-yl] piperazine-2-carboxylate]
59	C[C@@H]1CN(c2ccc3c(c2)CN(C[C@H]2CN(c4ccc(C#N)c5nccnc45)C[C@@H](C)O2)C3)CCN1 [Example 65, 8-[(2R,6S)-2-methyl-6-[[5-[(3R)-3-methylpiperazin-1-yl]isoindolin-2-yl]methyl]morpholin-4-yl] quinoxaline-5-carbonitrile]
73	C[C@@H]1CN(c2ccc(C#N)c3ncccc23)C[C@H](CN2Cc3ccc(CN4CCCCC4)cc3C2)O1 [Example 74, 5-[(2R,6S)-2-methyl-6-[[5-(1-piperidylmethyl)isoindolin-2-yl]methyl]morpholin-4-yl]quinoline-8-carbonitrile]
54	C[C@@H]1CN(c2ccc(C#N)c3ncccc23)C[C@H](CN2Cc3ccc(N4CCNC[C@@H]4CO)cc3C2)O1 [Example 82, 5-[(2S,6R)-2-[[5-[(2R)-2-(hydroxymethyl)piperazin-1-yl]isoindolin-2-yl]methyl]-6-methyl-morpholin-4-yl]quinoline-8-carbonitrile]

SMILES	IC50 [nM]
C[C@@H]1CN(c2ccc(C#N)c3nccnc23)C[C@H](CN2Cc3ccc(N4C5CCC4CNC5)cc3C2)O1 [Example 41, 8-[(2S,6R)-2-[[5-(3,8-diazabicyclo[3.2.1]octan-8-yl)isoindolin-2-yl]methyl]-6-methyl-morpholin-4-yl]quinoxaline-5-carbonitrile]	227
C[C@@H]1CN(c2ccc(C#N)c3nccnc23)C[C@H](CN2Cc3ccc(N4CC5COCC(C4)N5)cc3C2)O1 [Example 49, 8-[(2R,6S)-2-methyl-6-[[5-(3-oxa-7,9-diazabicyclo[3.3.1]nonan-7-yl)isoindolin-2-yl]methyl]morpholin-4-yl]quinoxaline-5-carbonitrile]	164
